Assay results published in ChEMBL document CHEMBL3734712, “Sanguiin H6 suppresses TGF-β induction of the epithelial-mesenchymal transition and inhibits migration and invasion in A549 lung cancer” (Bioorg Med Chem Lett, 2015).
Active and inactive are the calls of the source. The rule behind the calls is not given here.

Assays:
[1] = system: A549; assay: Cytotoxicity against human A549 cells assessed as cell viability at 50 to 100 uM after 48 hrs by WST-8 staining based CCK8 assay; details: a549, 48 h
[2] = system: A549; assay: Inhibition of TGF-beta1 induced epithelial-mesenchymal transition in human A549 cells assessed as reduction in COL5A2 level AT 5 AND 10 uM incubated for 48 hrs by qRT-PCR method; format: functional, cell-based
[3] = system: A549; assay: Inhibition of TGF-beta1 induced epithelial-mesenchymal transition in human A549 cells assessed as reduction in CALD1 level AT 5 AND 10 uM incubated for 48 hrs by qRT-PCR method; format: functional, cell-based
[4] = system: A549; assay: Inhibition of TGF-beta1-induced downregulation of epithelial marker E-cadherin expression in human A549 cells at 5 to 10 uM preincubated for 2 hrs by Western blot method; format: functional, cell-based
[5] = system: A549; assay: Inhibition of TGF-beta1 induced epithelial-mesenchymal transition in human A549 cells assessed as reduction in SNAI1 level AT 5 AND 10 uM incubated for 48 hrs by qRT-PCR method; format: functional, cell-based
[6] = system: A549; assay: Cytotoxicity against human A549 cells assessed as cell viability at 1 to 25 uM after 48 hrs by WST-8 staining based CCK8 assay; details: a549, 48 h
[7] = system: A549; assay: Inhibition of TGF-beta1 induced epithelial-mesenchymal transition in human A549 cells assessed as reduction in phosphorylated SMAD3 level preincubated for 2 hrs followed by TGF-beta1 addition by Western blot method; format: functional, cell-based
[8] = system: A549; assay: Inhibition of TGF-beta1 induced epithelial-mesenchymal transition in human A549 cells assessed as reduction in ITGA5 level AT 5 AND 10 uM incubated for 48 hrs by qRT-PCR method; format: functional, cell-based
[9] = system: A549; assay: Inhibition of TGF-beta1 induced epithelial-mesenchymal transition in human A549 cells assessed as morphological changes at 5 to 10 uM preincubated for 2 hrs followed by TGF-beta1 addition; format: functional, cell-based
[10] = system: A549; assay: Inhibition of TGF-beta1 response promoter transactivation mediated SMAD2 and SMAD3 phosphorylation in human A549 cells at 5 to 10 uM preincubated for 2 hrs by dual luciferase reporter assay; format: functional, cell-based
[11] = system: A549; assay: Inhibition of TGF-beta1 induced epithelial-mesenchymal transition in human A549 cells assessed as reduction in PAI1 level AT 5 AND 10 uM incubated for 48 hrs by qRT-PCR method; format: functional, cell-based
[12] = system: A549; assay: Inhibition of TGF-beta1-induced upregulation of Snail protein expression in human A549 cells preincubated for 2 hrs by Western blot method; format: functional, cell-based
[13] = system: A549; assay: Inhibition of TGF-beta1 induced epithelial-mesenchymal transition in human A549 cells assessed as reduction in CDH2 level AT 5 AND 10 uM incubated for 48 hrs by qRT-PCR method; format: functional, cell-based
[14] = system: A549; assay: Inhibition of TGF-beta1 induced epithelial-mesenchymal transition in human A549 cells assessed as reduction in SNAI2 level AT 5 AND 10 uM incubated for 48 hrs by qRT-PCR method; format: functional, cell-based
[15] = system: A549; assay: Inhibition of TGF-beta1 induced epithelial-mesenchymal transition in human A549 cells assessed as reduction in […] level AT 5 AND 10 uM incubated for 48 hrs by qRT-PCR method; format: functional, cell-based
[16] = system: A549; assay: Inhibition of TGF-beta1 stimulated invasion in human A549 cells at 5 to 10 uM incubated for 48 hrs by matrigel invasion assay; format: functional, cell-based
[17] = system: A549; assay: Inhibition of TGF-beta1 induced epithelial-mesenchymal transition in human A549 cells assessed as reduction in nuclear SMAD2 level preincubated for 2 hrs by Western blot method; format: functional, cell-based
[18] = system: A549; assay: Inhibition of TGF-beta1 induced epithelial-mesenchymal transition in human A549 cells assessed as reduction in phosphorylated SMAD2 level preincubated for 2 hrs followed by TGF-beta1 addition by Western blot method; format: functional, cell-based
[19] = system: A549; assay: Inhibition of TGF-beta1-induced […] Snail promoter activity in human A549 cells at 5 to 10 uM preincubated for 2 hrs by dual luciferase reporter assay; format: functional, cell-based
[20] = system: A549; assay: Inhibition of TGF-beta1 induced epithelial-mesenchymal transition in human A549 cells assessed as reduction in nuclear phosphorylated SMAD2 level preincubated for 2 hrs by Western blot method; format: functional, cell-based
[21] = system: A549; assay: Inhibition of TGF-beta1 induced epithelial-mesenchymal transition in human A549 cells assessed as reduction in nuclear phosphorylated SMAD3 level preincubated for 2 hrs by Western blot method; format: functional, cell-based
[22] = system: A549; assay: Inhibition of TGF-beta1-induced upregulation of mesenchymal marker N-cadherin expression in human A549 cells at 5 to 10 uM preincubated for 2 hrs by Western blot method; format: functional, cell-based
[23] = system: A549; assay: Inhibition of TGF-beta1-induced plasminogen activator inhibitor type 1 expression in human A549 cells assessed at 5 to 10 uM preincubated for 2 hrs by Western blot method; format: functional, cell-based
[24] = system: A549; assay: Inhibition of TGF-beta1 induced epithelial-mesenchymal transition in human A549 cells assessed as reduction in SPARC level AT 5 AND 10 uM incubated for 48 hrs by qRT-PCR method; format: functional, cell-based
[25] = system: A549; assay: Inhibition of TGF-beta1 induced cell migration in human A549 cells assessed as reduction in cell surface area incubated for 48 hrs by wound healing assay; format: functional, cell-based
[26] = system: A549; assay: Inhibition of TGF-beta1-induced matrix metalloproteinase-9 expression in human A549 cells at 5 to 10 uM preincubated for 2 hrs by Western blot method; format: functional, cell-based
[27] = system: A549; assay: Inhibition of TGF-beta1 induced epithelial-mesenchymal transition in human A549 cells assessed as reduction in nuclear SMAD3 level preincubated for 2 hrs by Western blot method; format: functional, cell-based

SMILES: O=C(O[C@@H]1O[C@@H]2COC(=O)c3cc(O)c(O)c(O)c3-c3c(cc(O)c(O)c3O)C(=O)O[C@H]2[C@@H]2OC(=O)c3cc(O)c(O)c(O)c3-c3c(cc(O)c(O)c3O)C(=O)O[C@H]12)c1cc(O)c(O)c(Oc2c(O)c(O)c(O)c3c2C(=O)O[C@H]2[C@@H]4OC(=O)c5cc(O)c(O)c(O)c5-c5c(cc(O)c(O)c5O)C(=O)O[C@@H]4[C@@H](OC(=O)c4cc(O)c(O)c(O)c4)O[C@@H]2COC(=O)c2cc(O)c(O)c(O)c2-3)c1
- Activity [1]: Toxic
- inhibition [2]: Active
- inhibition [3]: Active
- inhibition [4]: Active
- inhibition [5]: Active
- Activity [6]: Non-toxic
- inhibition [7]: Dose-dependent effect
- inhibition [8]: Active
- inhibition [9]: Active
- inhibition [10]: Active
- inhibition [11]: Active
- inhibition [12]: Dose-dependent effect
- inhibition [13]: Active
- inhibition [14]: Active
- inhibition [15]: Active
- inhibition [16]: Active
- inhibition [17]: Dose-dependent effect
- inhibition [18]: Dose-dependent effect
- inhibition [19]: Active
- inhibition [20]: Dose-dependent effect
- inhibition [21]: Dose-dependent effect
- inhibition [22]: Active
- inhibition [23]: Dose-dependent effect
- inhibition [24]: Active
- inhibition [25]: Dose-dependent effect
- inhibition [26]: Active
- inhibition [27]: Dose-dependent effect
